Data from patent publication US7511041B2, “Fused azole-pyrimidine derivatives” (Bayer Pharmaceuticals Corporation, priority 2002, dated 2009).
Read-outs that look alike come from different tables or passages of the source.

Assays:
[1] = target: T1, Recombinant human PI3Kγ (full length human PI3K p110γ) (Homo sapiens, UniProt P48736); assay: Kinase assay of PI3Kγ (solid-phase lipid kinase assay); assay type: biochemical
T1 construct: full length human PI3K p110γ fused with a His6-tag at the C-terminus; His6 (C); purchased ALEXIS BIOCHEMICALS #201-055-C010; host or cells: S. frugiperda 9 insect cells
Description: [Determination of IC50 Values of Compounds in Kinase Assay of PI3Kγ]
Chemicals and Assay Materials
LABORATORIES (Toronto, Canada). Recombinant human PI3Kγ (full length human PI3K p110γ fused with a His6-tag at the C-terminus expressed in S. frugiperda 9 insect cells) was obtained from ALEXIS BIOCHEMICALS (#201-055-C010; San Diego, Calif.). […] BIOTECH (Buckinghamshire, UK) and ROCHE DIAGNOSTICS (Mannheim, Germany), respectively. Scintillation cocktails and MicroScint PS™ were purchased from PACKARD (Meriden, Conn.). Maxisorp™ plates were purchased from NALGE NUNC INTERNATIONAL K.K. (Tokyo, Japan). All other chemicals not further specified were from WAKO PURE CHEMICALS (Osaka, Japan).
Solid-Phase Lipid Kinase Assay
The plates were subsequently air-dried by incubation for at least 2 hours in a fume hood. The reaction was set up by mixing 25 μl/well of assay buffer 2× (100 mM MOPSO/NaOH, 0.2 M NaCl, pH 7.0, 8 mM MgCl2, 2 mg/ml BSA (fatty acid-free)) and 50 ng/well PI3Kγ in the lipid pre-coated plate and 10× test compounds were added in 2% DMSO. The reaction was started by adding 20 μl/well of ATP mix (final 10 μM ATP; 0.05 μCi/well [γ^33P]ATP). After incubation at RT for 2 hours, the reaction was terminated by adding 50 μl/well stop solution (50 mM EDTA, pH 8.0). The plate was then washed twice with Tris-buffered saline (TBS, pH 7.4). MicroScint PS™ (PACKARD) scintillation mix was added at 100 μl/well, and radioactivity was counted by using a TopCount™ (PACKARD) scintillation counter.
The inhibition percent at each concentration of compound was calculated, and IC50 values were determined from the inhibition of curve.

[2] = Table 1, isozyme not given, read-out: in vitro

T1 sequence (P48736 whole entry, the tested form may be a part): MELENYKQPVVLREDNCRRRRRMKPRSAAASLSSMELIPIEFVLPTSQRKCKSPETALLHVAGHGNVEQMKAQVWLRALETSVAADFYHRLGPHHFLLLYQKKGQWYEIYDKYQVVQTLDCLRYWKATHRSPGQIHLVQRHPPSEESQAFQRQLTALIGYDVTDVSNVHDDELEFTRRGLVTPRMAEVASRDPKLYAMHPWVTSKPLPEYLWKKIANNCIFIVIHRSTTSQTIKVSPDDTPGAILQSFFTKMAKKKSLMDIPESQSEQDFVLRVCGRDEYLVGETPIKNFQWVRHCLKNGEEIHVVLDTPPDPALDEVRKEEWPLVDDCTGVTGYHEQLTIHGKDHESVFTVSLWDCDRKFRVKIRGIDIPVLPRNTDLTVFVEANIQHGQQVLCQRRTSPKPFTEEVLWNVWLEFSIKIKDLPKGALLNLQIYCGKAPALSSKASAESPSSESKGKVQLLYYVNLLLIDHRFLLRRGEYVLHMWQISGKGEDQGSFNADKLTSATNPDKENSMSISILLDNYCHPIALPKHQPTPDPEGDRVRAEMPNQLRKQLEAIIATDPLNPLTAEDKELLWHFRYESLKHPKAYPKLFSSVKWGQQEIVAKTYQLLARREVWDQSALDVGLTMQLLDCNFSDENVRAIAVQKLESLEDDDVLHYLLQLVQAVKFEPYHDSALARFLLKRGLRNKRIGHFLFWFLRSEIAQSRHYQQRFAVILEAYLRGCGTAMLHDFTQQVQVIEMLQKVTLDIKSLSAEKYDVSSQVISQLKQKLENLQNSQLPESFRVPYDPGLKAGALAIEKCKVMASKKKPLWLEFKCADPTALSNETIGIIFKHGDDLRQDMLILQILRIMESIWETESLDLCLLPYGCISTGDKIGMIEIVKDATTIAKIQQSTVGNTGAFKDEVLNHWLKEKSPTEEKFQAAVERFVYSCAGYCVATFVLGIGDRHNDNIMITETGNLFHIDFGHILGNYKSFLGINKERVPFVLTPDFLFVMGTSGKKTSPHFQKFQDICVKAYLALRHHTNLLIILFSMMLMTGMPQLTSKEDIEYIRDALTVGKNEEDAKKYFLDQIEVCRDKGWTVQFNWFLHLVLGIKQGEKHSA

| Compound | IC50 ([1]; activity class of IC50, read-out: In vitro PI3K-γ inhibitory activity) | melting point | IC50 [1, 2] |
| --- | --- | --- | --- |
| COCOc1ccc2c(c1OC)N=C(/C=C(\O)c1cccnc1)N1CCN=C21 [Example 1-3, 2-[7-Methoxy-8-(methoxymethoxy)-2,3-dihydroimidazo[1,2-c]quinazolin-5-yl]-1-pyridin-3-ylethylenol] | 100 to 500 nM | 215 to 216 °C | – |
| COc1c(O)ccc2c1N=C(/C=C(\O)c1cccnc1)N1CCN=C21.Cl [Example 1-9] | – | 245 °C (dec.) | < 100 nM |
| COc1ccc2c(c1OC)N=C(/C=C(\O)c1cccnc1)N1CCN=C21 [Example 1-10] | – | 269 to 270 °C | < 100 nM |
| COc1ccc2c(c1OC)N=C(/C=C(\O)c1ccc(NC(C)=O)nc1)N1CCN=C21 [Example 1-12] | – | 270 °C (dec.) | < 100 nM |
| CCOc1ccc2c(c1OC)N=C(/C=C(\O)c1cccnc1)N1CCN=C21 [Example 1-13] | – | 267 to 268 °C | < 100 nM |
| COc1c(OC(C)C)ccc2c1N=C(/C=C(\O)c1cccnc1)N1CCN=C21 [Example 1-14] | – | 252 to 253 °C | < 100 nM |
| COc1c(OCC2CC2)ccc2c1N=C(/C=C(\O)c1cccnc1)N1CCN=C21 [Example 1-15] | – | 254 °C (dec.) | 100 to 500 nM |
| COc1c(OCCO)ccc2c1N=C(/C=C(\O)c1cccnc1)N1CCN=C21 [Example 1-16] | – | 264 to 265 °C | < 100 nM |
| COc1c(OCC(=O)OC(C)(C)C)ccc2c1N=C(/C=C(\O)c1cccnc1)N1CCN=C21 [Example 1-18] | – | 184 to 186 °C | 100 to 500 nM |
| COc1c(OCCN(C)C)ccc2c1N=C(/C=C(\O)c1cccnc1)N1CCN=C21 [Example 1-19] | – | 183 to 184 °C | 100 to 500 nM |
| COc1c(OCCN2CCCCC2)ccc2c1N=C(/C=C(\O)c1cccnc1)N1CCN=C21 [Example 1-20] | – | 162 to 163 °C | 100 to 500 nM |
| COc1c(OCCN2CCCC2)ccc2c1N=C(/C=C(\O)c1cccnc1)N1CCN=C21 [Example 1-21] | – | 204 to 205 °C | < 100 nM |
| COc1c(OCC(=O)O)ccc2c1N=C(/C=C(\O)c1cccnc1)N1CCN=C21.Cl [Example 1-22] | – | 240 °C (dec.) | < 100 nM |
| COc1c(OCC(N)=O)ccc2c1N=C(/C=C(\O)c1cccnc1)N1CCN=C21 [Example 1-23] | – | 297 to 298 °C | < 100 nM |
| CNC(=O)COc1ccc2c(c1OC)N=C(/C=C(\O)c1cccnc1)N1CCN=C21.Cl [Example 1-25] | – | 240 °C (dec.) | < 100 nM |
| COc1c(OCC(=O)NC(C)C)ccc2c1N=C(/C=C(\O)c1cccnc1)N1CCN=C21.Cl [Example 1-26] | – | 245 °C (dec.) | < 100 nM |
| COc1c(OCC(=O)N(C)C)ccc2c1N=C(/C=C(\O)c1cccnc1)N1CCN=C21 [Example 1-27] | – | 241 to 242 °C | < 100 nM |
| COc1c(OCC(=O)N2CCOCC2)ccc2c1N=C(/C=C(\O)c1cccnc1)N1CCN=C21 [Example 1-29] | – | 235 °C | < 100 nM |
| COc1c(OCC(=O)NCc2ccc(F)cc2)ccc2c1N=C(/C=C(\O)c1cccnc1)N1CCN=C21.Cl [Example 1-31] | – | 230 to 231 °C | 100 to 500 nM |
| COc1c(C)ccc2c1N=C(/C=C(\O)c1ccc(NC(C)=O)nc1)N1CCN=C21.Cl [Example 1-33] | – | 273 °C | < 100 nM |
| COc1c(C)ccc2c1N=C(/C=C(\O)c1ccc3[nH]cnc3c1)N1CCN=C21 [Example 1-34] | – | > 285 °C | < 100 nM |
| COc1ccc2c(c1OCCN1CCOCC1)N=C(/C=C(\O)c1cccnc1)N1CCN=C21 [Example 1-36] | – | 197 °C | < 100 nM |
| COc1ccc2c(c1OCCN1CCOCC1)N=C(/C=C(\O)c1ccc(NC(C)=O)nc1)N1CCN=C21.Cl [Example 1-38] | – | 260 °C | < 100 nM |

Other lines, results leading:

| IC50 ([1]; activity class of IC50, read-out: In vitro PI3K-γ inhibitory activity) | melting point | IC50 [1, 2] | Compound |
| --- | --- | --- | --- |
| – | 217 °C | 100 to 500 nM | Cc1ccc2c(c1OCCN1CCOCC1)N=C(/C=C(\O)c1cccnc1)N1CCN=C21 [Example 1-39] |
| – | 271 °C | < 100 nM | CC(=O)Nc1ccc(/C(O)=C/C2=Nc3c(ccc(C)c3OCCN3CCOCC3)C3=NCCN23)cn1.Cl [Example 1-41] |
| – | 218 °C | < 100 nM | COc1cc(OC)c2c(c1)C1=NCCN1C(/C=C(\O)c1cccnc1)=N2 [Example 1-42] |
| – | > 290 °C | 100 to 500 nM | CC(=O)Nc1ccc(/C(O)=C/C2=Nc3c(C)cc(Br)cc3C3=NCCN23)cn1.Cl [Example 1-44] |
| – | > 290 °C | 100 to 500 nM | Cc1cc(Br)c2c(c1)C1=NCCN1C(/C=C(\O)c1cccnc1)=N2.Cl [Example 1-45] |
| – | > 285 °C | < 100 nM | CC(=O)Nc1ccc(/C(O)=C/C2=Nc3c(Br)cc(C)cc3C3=NCCN23)cn1.Cl [Example 1-46] |
| – | > 285 °C | 100 to 500 nM | Cc1cc(Br)c2c(c1)C1=NCCN1C(/C=C(\O)c1ccc3[nH]cnc3c1)=N2 [Example 1-47] |
| – | 200 to 204 °C | < 100 nM | COc1cc2c(cc1OC)C1=NCCN1C(/C=C(\O)c1ccc(C)nc1)=N2 [Example 1-49] |
| – | 260 °C (dec.) | 100 to 500 nM | COc1cc2c(cc1OC)C1=NCCN1C(/C=C(\O)c1ccc(C)nc1)=N2.Cl [Example 1-50] |
| – | 275 to 280 °C | 100 to 500 nM | COc1cc2c(cc1OC)C1=NCCN1C(/C=C(\O)c1ccc(NC(C)=O)nc1)=N2.Cl [Example 1-51] |
| – | 321 to 325 °C | 100 to 500 nM | CNc1ccc(/C(O)=C/C2=Nc3cc(OC)c(OC)cc3C3=NCCN23)cn1 [Example 1-52] |
| – | 207 °C | 100 to 500 nM | COc1cc2c(cc1OC)C1=NCCN1C(/C=C(\O)c1ccc(NCCO)nc1)=N2 [Example 1-54] |
| – | 283 °C | 100 to 500 nM | COc1cc2c(cc1OC)C1=NCCN1C(/C=C(\O)c1ccc(Cl)nc1)=N2 [Example 1-55] |
| – | 240 °C (dec.) | < 100 nM | COc1cc2c(cc1OC)C1=NCCN1C(/C=C(\O)c1ccc3[nH]cnc3c1)=N2.Cl [Example 1-57] |
| – | 250 °C | 100 to 500 nM | COc1cc2c(cc1OC)C1=NCCN1C(/C=C(\O)c1cccs1)=N2 [Example 1-58] |
| – | 292 °C | < 100 nM | COc1cc2c(cc1OC)C1=NCCN1C(/C=C(\O)c1sc(C)nc1C)=N2 [Example 1-60] |
| – | 278 °C | < 100 nM | COc1cc2c(c(OC)c1C)N=C(/C=C(\O)c1cccnc1)N1CCN=C21 [Example 1-62] |
| – | > 285 °C | < 100 nM | COc1cc2c(c(OC)c1C)N=C(/C=C(\O)c1ccc(NC(C)=O)nc1)N1CCN=C21 [Example 1-64] |
| – | 280 °C | 100 to 500 nM | COc1cc2c(c(OC)c1C)N=C(/C=C(\O)c1ccc3[nH]cnc3c1)N1CCN=C21 [Example 1-66] |
| – | 275 °C | < 100 nM | COc1cccc2c1N=C(/C=C(\O)c1cccnc1)N1CCN=C21 [Example 1-68] |
| – | 218 °C | < 100 nM | Cl.O/C(=C\C1=Nc2c(F)cccc2C2=NCCN12)c1cccnc1 [Example 1-70] |
| – | 303 °C | 100 to 500 nM | Cl.O/C(=C\C1=Nc2c(F)cccc2C2=NCCN12)c1cccnc1 [Example 1-71] |
| – | 210 °C (dec.) | 100 to 500 nM | O/C(=C\C1=Nc2c(Cl)cccc2C2=NCCN12)c1cccnc1 [Example 1-72] |
| – | 120 °C (dec.) | 100 to 500 nM | O/C(=C\C1=Nc2c(Br)cccc2C2=NCCN12)c1cccnc1 [Example 1-73] |
| – | 248 °C | 100 to 500 nM | Cc1cccc2c1N=C(/C=C(\O)c1cccnc1)N1CCN=C21 [Example 1-75] |
| – | > 285 °C | < 100 nM | CC(=O)Nc1ccc(/C(O)=C/C2=Nc3c(C)cccc3C3=NCCN23)cn1 [Example 1-77] |
| – | > 285 °C | < 100 nM | Cc1cccc2c1N=C(/C=C(\O)c1ccc3[nH]cnc3c1)N1CCN=C21.Cl [Example 1-79] |
| – | 275 °C | 100 to 500 nM | O/C(=C\C1=Nc2c(cccc2C(F)(F)F)C2=NCCN12)c1cccnc1 [Example 1-80] |
| – | 198 to 202 °C (dec.) | 100 to 500 nM | O/C(=C\C1=Nc2c(CN3CCOCC3)cccc2C2=NCCN12)c1cccnc1 [Example 1-82] |
| – | > 250 °C | 100 to 500 nM | Cl.O/C(=C\C1=Nc2c(O)cccc2C2=NCCN12)c1cccnc1 [Example 1-83] |
